This note sets out measurements from patent US20080269286A1, “Disubstituted Phenylpiperidines as Modulators of Cortical Catecholaminergic Neurotransmission” (priority 2005, published 2008).

Each structure is given as a SMILES string. Structures can show the parent of a compound that is named as a salt.

The subject of data set [1] is DOPAC levels (3,4-dihydroxyphenylacetic acid) in the rat striatum. As to the kind of experiment: In vivo test: neurochemistry, tissue content of DOPAC in the striatum. As to conditions: sc, 1 h, 100 μmol/kg s.c., 60 minutes after administration, %-increase from control value. On the procedure:
In short, male Sprague-Dawely rats are administered the test compound 60 minutes prior to decapitation. The brain is rapidly taken out and dissected. The striatum is rapidly frozen and subsequently quantitatively analysed with respect to its content of DOPAC by means of HPLC and electrochemical detection. The number of animals used for each test compound/vehicle is 4/group.
Male Sprague-Dawley rats weighing 220-320 g are used throughout the experiments. Sixty (60) minutes following administration of the test substance, the rats are decapitated. Directly after decapitation the brain is removed from the skull and put on a glass petri bowl filled with ice. The limbic system (containing the nucleus accumbens—both the core and shell, most parts of the olfactory tubercle and ventral pallidum) is dissected using two thin, angled tweezers and put directly on foil on dry ice (carbon dioxide −78° C.). The striatum and cortex are then dissected and also put on dry ice. The time from decapitation until the last tissue is dissected varies from four to six minutes. The tissue is weighed using a Sartorius BP3105 connected to a computer and packed in labelled tin foil, then stored in an −80° C. freezer. Great care is taken in order to keep the tissue frozen until the time of neurochemical analysis. Each brain part is subsequently analyzed with respect to its content of monoamines and their metabolites.
The monoamine transmitter substances (NE (norepinephrine), DA (dopamine), 5-HT (serotonin)) as well as their amine (NM (normethanephrine), 3-MT (3-methoxytyramine)) and acid (DOPAC (3,4-dihydroxyphenylacetic acid), 5-HIAA (5-hydroxyindoleacetic acid), HVA (homovanillic acid)) metabolites are quantified in brain tissue homogenates by HPLC separations and electrochemical detection.
The analytical method is based on two chromatographic separations dedicated for amines or acids. Two chromatographic systems share a common auto injector with a 10-port valve and two sample loops for simultaneous injection on the two systems. Both systems are equipped with a reverse phase column (Luna C18(2), dp 3 μm, 50*2 mm i.d., Phenomenex) and electrochemical detection is accomplished at two potentials on glassy carbon electrodes (MF-1000. Bioanalytical Systems, Inc.). The column effluent is passed via a T-connection to the detection cell or to a waste outlet. This is accomplished by two solenoid valves, which block either the waste or detector outlet. By preventing the chromatographic front from reaching the detector, better detection conditions are achieved. […] Detection potentials relative to Ag/AgCl reference are 0.45 and 0.60V. […] Detection potentials relative to Ag/AgCl reference are 0.45 and 0.65V.

For data set [2], the system named is extracellular levels of dopamine and norepinephrine. In words: In vivo test: microdialysis, extracellular monoamines in striatum and prefrontal cortex. To be noted: awake and freely moving rats; for levels of dopamine and norepinephrine in the cortex (microdialysis): 50 μmol/kg s.c., pf. cortex, FIGS. 11-24. Details: species or system rat. An excerpt:
The microdialysis technique (Ungerstedt, Herrera-Marschitz et al. 1982) is a well established technique for measuring extracellular levels of neurotransmitters (Ungerstedt 1991). The microdialysis technique was used to measure the effect of drugs upon the monoamine transmitters. The appended graphs (FIGS. 9 and 10) show the effects of one established antidepressant (mirtazapine) upon monoamines in the striatum and frontal cortex, as well as for seven compounds claimed in the present invention (FIGS. 11-24; Examples 1, 3, 4, 6, 9, 10 and 11). The number of animals (n) used for each compound tested is noted in the figure legend.
Male Sprague-Dawley rats weighing 220-320 g were used throughout the experiments. Before the experiment the animals were group housed, five animals in each cage, with free access to water and food. The animals were housed at least one week after arrival prior to surgery and use in the experiments. Each rat was used only once for microdialysis. We use a modified version (Waters, Lofberg et al. 1994) of the I-shaped probe (Santiago and Westerink 1990). The dialysis membrane we use is the AN69 polyacrylonitrile/sodium methalylsulfonate copolymer (HOSPAL; o.d./i.d. 310/220 μm: Gambro, Lund, Sweden). In the dorsal striatum we use probes with an exposed length of 3 mm of dialysis membrane and in the prefrontal cortex the corresponding length is 2.5 mm. The rats were operated under isoflurane inhalation anesthesia while mounted into a Kopf stereotaxic instrument. Coordinates were calculated relative to bregma; dorsal striatum AP+1, ML±2.6, DV−6.3; Pf cortex, AP+3.2, 8° ML±1.2, DV−4.0 according to (Paxinos and Watson 1986). The dialysis probe was positioned in a burr hole under stereotaxic guidance and cemented with phosphatine dental cement.
The rats were housed individually in cages for 48 h before the dialysis experiments, allowing them to recover from surgery and minimizing the risk of drug interactions with the anaesthetic during the following experiments. During this period the rats had free access to food and water. On the day of experiment the rats were connected to a micro perfusion pump via a swivel and were replaced in the cage where they could move freely within its confinements. The perfusion medium was a Ringer's solution containing in mmol/l: NaCl; 140, CaCl2; 1.2, KCl; 3.0, MgCl2; 1.0 and ascorbic acid; 0.04 according to (Moghaddam and Bunney 1989). The pump was set to a perfusion speed of 2 μl/min and 40 μl samples were collected every 20 min.
30 μl of each sample was injected into the chromatograph. On a 10-port injector (Valco C10W), with two sample loops mounted in series (2 μl and 20 μl), each brain dialysate sample is loaded in both loops simultaneously. When the valve is switched to inject the main part of the 20 μl sample is introduced into a reverse-phase ion-pairing system for dopamine (DA), norepinephrine (NE), normetanephrine (NM), 3-methoxytyramine (3-MT) and serotonin (5-hydroxytryptamine, 5-HT) determination (large loop), while a small fraction (2 μl, from the small loop) is introduced on a reverse-phase column for the chromatography of the acidic monoamine metabolites 3,4-di-hydroxyphenylacetic acid (DOPAC), homovanillic acid (HVA) and 5-hydroxyindoleacetic acid (5-HIAA). The currents generated by the two EC detectors are converted to digital data and evaluated using Chromelion software (Dionex, Sunnyvale, Calif.) on a PC. The method sample turn over time was 4.5 min and two parallel experiments are normally analysed simultaneously on the system. After the experiment the rats were uncoupled from the perfusion pump and decapitated. Their brains were rapidly taken out and fixed in Neo-fix solution (Kebo-lab, Sweden) for subsequent inspection of probe localisation. The Animal Ethics Committee in Göteborg, Sweden approved the procedures applied in these experiments. • Moghaddam, B. and B. S. Bunney (1989). […]

Consider `Fc1ccc(C2CCNCC2)cc1C(F)F`, for which, in data set [1], the change in vivo at 100 µmol/kg came out at 17%. For orientation: melting point means the temperature of the solid-liquid transition. `Fc1cc(F)cc(C2CCNCC2)c1` (as salt: fumaric acid salt) [Example 3, 4-(3,5-DIFLUOROPHENYL)PIPERIDINE]: the melting point was found to be 178 °C. On the same count and under the same terms, under `Fc1ccc(C2CCNCC2)cc1C(F)(F)F` (as salt: hydrochloric acid salt) stands 195 to 196 °C; under `Fc1ccc(C2CCNCC2)c(F)c1` (as salt: hydrochloric acid salt) [Example 1, 4-(2,4-DIFLUOROPHENYL)PIPERIDINE], 256 to 258 °C. On the same count and under the same terms, under `Fc1ccc(C2CCNCC2)cc1F` (as salt: hydrochloric acid salt) [Example 4, 4-(3,4-DIFLUOROPHENYL)PIPERIDINE] stands 255 to 256 °C; under `Clc1ccc(C2CCNCC2)cc1Cl` (as salt: hydrochloric acid salt) [Example 6, 4-(3,4-DICHLOROPHENYL)PIPERIDINE], 170 °C; under `Fc1cc(Cl)cc(C2CCNCC2)c1` (as salt: hydrochloric acid salt) [Example 10, 4-(3-CHLORO-5-FLUOROPHENYL)PIPERIDINE], 243 °C.

Regarding `CN1CCC(c2ccc(F)cc2F)CC1` (as salt: hydrochloric acid salt) [Example 11, 4-(2,4-DIFLUOROPHENYL)-1-METHYLPIPERIDINE], the melting point was determined as 198 °C. On the same count and under the same terms, under `Fc1ccc(C2CCNCC2)cc1Cl` (as salt: oxalic acid salt) [Example 9, 4-(3-CHLORO-4-FLUOROPHENYL)PIPERIDINE] stands 147 °C. Turning to `Fc1ccc(C2CCNCC2)c(F)c1` [Example 1, 4-(2,4-DIFLUOROPHENYL)PIPERIDINE], the “levels of dopamine and norepinephrine in the cortex (microdialysis)” value (“levels of dopamine and norepinephrine” for short) in data set [2] was “elevate the levels of dopamine and norepinephrine in the cortex”. On the same count and under the same terms, under `Fc1cc(F)cc(C2CCNCC2)c1` [Example 3, 4-(3,5-DIFLUOROPHENYL)PIPERIDINE] stands “elevate the levels of dopamine and norepinephrine in the cortex”; under `Fc1ccc(C2CCNCC2)cc1F` [Example 4, 4-(3,4-DIFLUOROPHENYL)PIPERIDINE], “elevate the levels of dopamine and norepinephrine in the cortex”. Still for that read-out and setting: under `Clc1ccc(C2CCNCC2)cc1Cl` [Example 6, 4-(3,4-DICHLOROPHENYL)PIPERIDINE] stands “elevate the levels of dopamine and norepinephrine in the cortex”; under `Fc1ccc(C2CCNCC2)cc1Cl` [Example 9, 4-(3-CHLORO-4-FLUOROPHENYL)PIPERIDINE], “elevate the levels of dopamine and norepinephrine in the cortex”. `Fc1cc(Cl)cc(C2CCNCC2)c1` [Example 10, 4-(3-CHLORO-5-FLUOROPHENYL)PIPERIDINE]: the “levels of dopamine and norepinephrine” value in data set [2] is “elevate the levels of dopamine and norepinephrine in the cortex”. `CN1CCC(c2ccc(F)cc2F)CC1` [Example 11, 4-(2,4-DIFLUOROPHENYL)-1-METHYLPIPERIDINE]: in data set [2], the “levels of dopamine and norepinephrine” value was “elevate the levels of dopamine and norepinephrine in the cortex”. Regarding `Fc1ccc(C2CCNCC2)c(F)c1` [drawing 13], the change in vivo at 100 µmol/kg in data set [1] is -36%.

Consider `Fc1cc(F)cc(C2CCNCC2)c1` [drawing 15], for which the change in vivo at 100 µmol/kg in data set [1] is -19%. The same measure, in the same setting: under `Clc1ccc(C2CCNCC2)cc1Cl` [drawing 16] stands -14%.

As to `Fc1ccc(C2CCNCC2)cc1Cl` [drawing 17], the change in vivo at 100 µmol/kg in data set [1] is -29%. `Fc1cc(Cl)cc(C2CCNCC2)c1` [drawing 18]: the change in vivo at 100 µmol/kg in data set [1] was -26%. The same measure, in the same setting: under `CN1CCC(c2ccc(F)cc2F)CC1` [drawing 19] stands -41%. Turning to `CN1CCN2c3ncccc3Cc3ccccc3C2C1` (centres unmarked) [mirtazapine, reference compound], the “extracellular norepinephrine and dopamine in the cortex (microdialysis)” value in data set [2] (10 mg/kg s.c., p.f. cortex, FIG. 10) was “increase predominantly extracellular norepinephrine and dopamine in the cortex”. As for `CCCN1CCC(c2ccc(Cl)c(C(F)(F)F)c2)CC1` [reference compound], the change in vivo at 100 µmol/kg in data set [1] was 94%. On the same count and under the same terms, under `CCCN1CCC(c2ccc(F)c(C(F)(F)F)c2)CC1` [reference compound] stands 94%; under `CCCN1CCC(c2cc(F)cc(C(F)(F)F)c2)CC1` [reference compound], 239%; under `CCN1CCC(c2cc(F)cc(C(F)(F)F)c2)CC1` [reference compound], 232%. In the case of `CCN1CCC(c2ccc(F)c(C(F)(F)F)c2)CC1` [reference compound], in data set [1], the change in vivo at 100 µmol/kg was determined as 75%. The same measure, in the same setting: under `CCCN1CCC(c2cccc(S(C)(=O)=O)c2)CC1` [reference compound] stands 114%.
